Data reported in patent US11110114B2, “Dinucleotides” (OXFORD UNIVERSITY INNOVATION LIMITED, priority 2017, dated 2021).
Read-outs that look alike come from different tables or passages of the source. In the oligonucleotide strings, read from the 5' end, every base follows the letter of its sugar. An asterisk marks phosphorothioate; unmarked linkages are phosphodiester. Other units and linkages are bracketed, terminal groups are in braces. A string of capitals states the bases alone. [tz] = triazole internucleoside linkage; l = locked nucleic acid (LNA); [5mC] = 5-methylcytosine; d = 2'-deoxy (DNA)

Columns and labels:
Assay type in all cases: binding
[1] = system: DNA target: 5′-dGCT GGA GAG GTC G (SEQ ID NO: 39)
[2] = system: RNA target; 5′-rGCU AGA GAA GUC G (SEQ ID NO: 18); experiment: UV melting, two triazole linkages, RNA target (Table 9); conditions: for TM RNA TARGET: two MeC-T steps
Description: (§1) UV DNA melting curves were recorded in a Cary 4000 Scan UV-Visible Spectrophotometer using 3 μM of each oligonucleotide in a 10 mM phosphate buffer containing 200 mM NaCl at pH 7.0. Samples were annealed by heating to 85° C. (10° C./min) and then slowly cooling to 20° C. (1° C./min). As these six successive cycles (heating and cooling) were performed at a gradient of 1° C./min, the change in UV absorbance at 260 nm was recorded. The melting temperature was calculated from the 1st derivative of the melting curve using in built software.
(§2) Next, oligonucleotides incorporating two triazole inter-nucleotide linkage steps were prepared by templated CuAAC click ligation reactions in the presence of a complementary splint. The ligated oligonucleotides were purified by denaturating 20% polyacrylamide gel electrophoresis and were evaluated for their binding affinity for complementary DNA/RNA strands (Table 9). […] When compared to unmodified ON7, a drop of only 0.8° C./modification was observed (ON8, RNA target). […] Since the improvement in binding affinity is specific for DNA:RNA hybrids, triazole-linked LNA could find use in selective probes for RNA targeting.

[3] = system: DNA target; 5′-dGCT AGA GAA GTC G (SEQ ID NO: 52); experiment: UV melting, two triazole linkages, DNA target (Table 9); conditions: two MeC-T steps
Description: as §1, §2

[4] = system: RNA Target 3′-rGAG UGM UAG ACG A; experiment: Mismatch discrimination by UV melting (Table 3)
Description: as §1

[5] = system: DNA target: 5′-dGCT GCA AGC GTC G (SEQ ID NO: 48); experiment: UV melting, single triazole linkage, DNA target (Table 8)
[6] = system: RNA target: 5′-rGCU GCA AGC GUC G (SEQ ID NO: 49); experiment: UV melting, single triazole linkage, RNA target (Table 8)
[7] = system: DNA target 5′-dGCT GCA GGC GTC G (SEQ ID NO: 35); conditions: for Tm DNA target: pH 7
[8] = system: RNA target 5′-rGCU GCA GGC GUC G (SEQ ID NO: 36); conditions: for Tm RNA target: pH 7
[9] = system: RNA Target 3′-rGCUGCGMACGUCG; experiment: Mismatch discrimination by UV melting, single triazole linkage MeC-T step (Table 6)
[10] = fully matched RNA target (M = A)
[11] = 10 mM phosphate, 200 mM NaCl, pH 7.0, 3.0 μM each strand
[12] = mismatch M = C, relative to the fully matched duplex (M = A)
[13] = mismatch M = G, relative to the fully matched duplex (M = A)
[14] = mismatch M = U, relative to the fully matched duplex (M = A)
[15] = relative to the unmodified duplex (ON1)

5′-dCGA^MeCp^MeC^LTCT^MeCp^MeC^LAGC [ON36, reference compound]
Tm DNA target [1]: 72.2 °C
ΔTm/mod DNA target [1]: +2.8

CGA^MeCT^LTCT^MeCT^LAGC (dCdGdAd[5mC]lTdTdCdTd[5mC]lTdAdGdC) [ON10, two LNA, no triazole, reference compound]
TM RNA TARGET [2]: 70.0 °C
TM DNA TARGET [3]: 62.2 °C

5′-dCGA^MeCp^MeCTCT^MeCp^MeCAGC (DNA dCdGdAd[5mC]d[5mC]dTdCdTd[5mC]d[5mC]dAdGdC) [ON35, reference compound]
Tm DNA target [1]: 66.6 °C

CGA^MeCtTTCT^MeCtTAGC [ON9]
TM RNA TARGET [2]: 47.1 °C
TM DNA TARGET [3]: 42.3 °C

5′-CTC ACT ATC TG^MeCT (DNA dCdTdCdAdCdTdAdTdCdTdGd[5mC]dT) [ON100, reference compound]
TM M = A [4, 10]: 54.8 °C
ΔTM U ([4]; mismatch RNA target M = U, change in Tm relative to the fully matched duplex (M = A)): -11.3

CGACG^MeC^LtT^LTGCAGC (DNA dCdGdAdCdGl[5mC][tz]lTdTdGdCdAdGdC) [ON6]
ΔTM DNA TARGET [5]: -5.8
TM DNA TARGET ([5]; pH 7): 58.4 °C
additional stabilising effect of LNA on the 5′-side of the triazole [6]: no significant additional stabilising effect
ΔTM RNA TARGET [6]: +0.1
TM RNA TARGET ([6]; pH 7): 62.9 °C

CGA^MeCtT^LTCT^MeCtT^LAGC [ON8]
drop in Tm compared to unmodified ON7 ([2]; RNA target): 0.8 °C/modification
increase in Tm relative to oligonucleotides with two triazole linkages without 3′-LNA ([2]; RNA target, compare ON8 and ON9): 5.0 °C/modification
TM RNA TARGET [2]: 57.1 °C
TM DNA TARGET [3]: 48.0 °C

5′-d CGACG^MeCp^MeC^LTGCAGC (DNA dCdGdAdCdGd[5mC]l[5mC]dTdGdCdAdGdC) [ON34, reference compound]
ΔTm DNA target [7]: +3.3
Tm DNA target [7]: 72 °C
ΔTm RNA target [8]: +5.6
Tm RNA target [8]: 74.7 °C

5′-d CGACG^MeCp^MeCTGCAGC (DNA dCdGdAdCdGd[5mC]d[5mC]dTdGdCdAdGdC) [ON33, reference compound]
Tm DNA target [7]: 68.7 °C
Tm RNA target [8]: 69.1 °C

CGACG^MeCT^LTGCAGC (DNA dCdGdAdCdGd[5mC]lTdTdGdCdAdGdC) [ON4, reference compound]
ΔTM DNA TARGET [5]: 3.3 °C
TM DNA TARGET ([5]; pH 7): 67.5 °C
ΔTM RNA TARGET [6]: 6.1 °C
TM RNA TARGET ([6]; pH 7): 68.9 °C
TM M = A [9]: 68.9 °C
ΔTM C [9]: -15.2
ΔTM G [9]: -4.8
ΔTM U [9]: -13.7

5′-dCGA^MeCt^MeC^LTCT^MeCt^MeC^LAGC [ON13]
Tm DNA target [1]: 56.4 °C
ΔTm/mod DNA target [1]: -5.1

5′-dCGACG^MeCt^MeC^LTGCAGC (DNA dCdGdAdCdGd[5mC][tz]l[5mC]dTdGdCdAdGdC) [ON11]
ΔTm DNA target [7]: -5.1
Tm DNA target [7]: 63.5 °C
ΔTm RNA target [8]: -0.5
Tm RNA target [8]: 68.6 °C

5′-dCGA^MeCt^MeCTCT^MeCt^MeCAGC [ON14]
Tm DNA target [1]: 51.9 °C
ΔTm/mod DNA target [1]: -7.3

5′-d CGACG^MeCt^MeCTGCAGC (DNA dCdGdAdCdGd[5mC][tz]d[5mC]dTdGdCdAdGdC) [ON12]
ΔTm DNA target [7]: -6.4
Tm DNA target [7]: 62 °C
ΔTm RNA target [8]: -5.8
Tm RNA target [8]: 63.4 °C

CGACG^MeCTTGCAGC (dCdGdAdCdGd[5mC]dTdTdGdCdAdGdC) [ON1, unmodified 13-mer, reference compound]
TM DNA TARGET [5, 11]: 64.2 °C
TM RNA TARGET [6, 11]: 62.8 °C
TM M = A [9, 10]: 62.8 °C
ΔTM C [9, 12]: -16.3
ΔTM G [9, 13]: -3.9
ΔTM U [9, 14]: -13.7

CGACG^MeC^LtTTGCAGC (dCdGdAdCdGl[5mC][tz]dTdTdGdCdAdGdC) [ON5, LNA on the 5′-side of the triazole]
TM DNA TARGET [5, 11]: 52.7 °C
ΔTM DNA TARGET [5, 15]: -11.5 °C
TM RNA TARGET [6, 11]: 55.5 °C
additional stabilising effect of LNA on the 5′-side of the triazole ([6]; DNA:RNA hybrids or DNA duplexes (Table 8)): no significant additional stabilising effect
ΔTM RNA TARGET [6, 15]: -7.2 °C

CGACG^MeCtTTGCAGC [ON3]
TM DNA TARGET [5, 11]: 55.3 °C
ΔTM DNA TARGET [5, 15]: -8.9 °C
TM RNA TARGET [6, 11]: 56.6 °C
ΔTM RNA TARGET [6, 15]: -6.2 °C
TM M = A [9, 10]: 56.6 °C
ΔTM C [9, 12]: -16.1
ΔTM G [9, 13]: -2.2
ΔTM U [9, 14]: -12.9

CGA^MeCTTCT^MeCTAGC (dCdGdAd[5mC]dTdTdCdTd[5mC]dTdAdGdC) [ON7, unmodified 13-mer, reference compound]
TM RNA TARGET [2]: 58.8 °C
TM DNA TARGET [3]: 57.1 °C

CGACG^MeCtT^LTGCAGC (DNA dCdGdAdCdGd[5mC][tz]lTdTdGdCdAdGdC) [ON2]
increase in thermal stability compared to the duplex containing only the triazole linkage [5]: 2.9
ΔTM DNA TARGET [5]: −6.0
TM DNA TARGET ([5]; pH 7): 58.2 °C
increase in Tm relative to the duplex with only the triazole linkage [6]: 5.4
ΔTM RNA TARGET [6]: −0.8
TM RNA TARGET ([6]; pH 7): 62 °C
TM M = A [9]: 62 °C
ΔTM C [9]: -15.6
ΔTM G [9]: -3.3
ΔTM U [9]: -13.4
